Laboratory results published in patent US10501516B2, “Peptide compound” (TAKEDA PHARMACEUTICAL COMPANY LIMITED, priority 2016, dated 2019).
Square brackets hold non-standard residues; d marks the D form. Side chains are listed from the residue outwards. Peptide text beside a SMILES is read from it. * marks the point of attachment. Phe(2-F) = N[C@@H](Cc1ccccc1F)C(=O)O; NMeY = CN[C@@H](Cc1ccc(O)cc1)C(=O)O; Palmitoyl = CCCCCCCCCCCCCCCC(=O)*; αMeF = C[C@](N)(Cc1ccccc1)C(=O)O; Iva = CC[C@](C)(N)C(=O)O; Aib = CC(C)(N)C(=O)O

Experiments:
human GLP-1R = molecular target: T1, human GLP-1R (Homo sapiens, UniProt P43220); assay: Reporter assay of human GLP-1R gene (agonist activity, intracellular cAMP as index); format: cell-based; conditions: Cre-luc reporter, hGLP-1R/Crel cells (CHO-K1), 4 hours
T1 construct: expressed in transfected cells; host or cells: CHO-K1 Cre-luc reporter cells (hGLP-1R/Crel cells)
T1 sequence (P43220 24-463): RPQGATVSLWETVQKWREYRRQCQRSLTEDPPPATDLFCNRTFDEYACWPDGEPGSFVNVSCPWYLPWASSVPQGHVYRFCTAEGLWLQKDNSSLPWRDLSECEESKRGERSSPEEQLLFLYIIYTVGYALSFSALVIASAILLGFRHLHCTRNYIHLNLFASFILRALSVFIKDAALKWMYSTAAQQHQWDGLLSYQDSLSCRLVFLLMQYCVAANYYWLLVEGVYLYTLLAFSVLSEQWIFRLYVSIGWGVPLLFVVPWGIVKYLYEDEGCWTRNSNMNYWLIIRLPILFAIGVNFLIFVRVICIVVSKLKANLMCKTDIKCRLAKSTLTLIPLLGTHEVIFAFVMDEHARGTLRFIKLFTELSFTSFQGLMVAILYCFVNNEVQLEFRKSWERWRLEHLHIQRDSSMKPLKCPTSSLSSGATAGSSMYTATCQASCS
Source text: (§1) Evaluation of Agonist Activity Against Human NPY2R, Human GIPR, and Human GLP-1R Using Change in Intracellular cAMP Concentration as Index
The human GLP-1R gene having a sequence identical to the sequence of GenBank Accession No. NM_002062 was cloned into pIRESneo3 vector (Clontech Laboratories, Inc.) to prepare hGLP-1R/pIRESneo3. This vector was introduced to the Cre-luc reporter cells obtained in (1) to obtain transformants. Next, a cell line induced to express luciferase, i.e., hGLP-1R/Crel cells, were selected from the obtained transformants by the addition of human GLP-1(7-37) peptide.
(§2) The hGIPR/CRE-LUC/CHO-K1 cells or the hGLP-1R/Crel cells were inoculated at a cell density of 25 μL/well (5,000 cells/well) to a 384-well white plate (Corning, 3570), and cultured overnight in Ham F12 medium containing 10% fetal bovine serum, 100 U/mL penicillin and 100 μg/mL streptomycin in a CO2 incubator of 37° C. On the next day, a medium containing a test compound was added at a concentration of 5 μL/well to the cells, and the resultant cells were incubated for 4 hours in a CO2 incubator of 37° C. to give the final concentration of 1 μM. SteadyGlo (Promega) was added thereto at a concentration of 30 μL/well, and the mixture was shaken with light shielded. After 30 minutes, the luciferase activity was measured using a plate reader Envision (PerkinElmer). For the GIPR agonist activity, the luciferase activity in the presence of 10 μM GIP was defined as 100%, and the luciferase activity from the addition of DMSO instead of the test compound was defined as 0%. The GIPR agonist activity was calculated with a rise in intracellular cAMP concentration as an index.
For the GLP-1R agonist activity, assay similar to above was conducted using the hGLP-1R/Crel cells. The luciferase activity in the presence of 10 μM GLP-1 was defined as 100%, and the luciferase activity from the addition of DMSO instead of the test compound was defined as 0%. The GLP-1R agonist activity was calculated with a rise in intracellular cAMP concentration as an index.

human GIPR = molecular target: T2, human GIPR (Homo sapiens, UniProt P48546); assay: Reporter assay of human GIPR gene (agonist activity, intracellular cAMP as index); format: cell-based; conditions: Cre-luc reporter, hGIPR/CHO-K1 cells, 4 hours
T2 construct: expressed in transfected cells; host or cells: CHO-K1 Cre-luc reporter cells (hGIPR/CHO-K1, also called hGIPR/CRE-LUC/CHO-K1)
T2 sequence (P48546 22-466): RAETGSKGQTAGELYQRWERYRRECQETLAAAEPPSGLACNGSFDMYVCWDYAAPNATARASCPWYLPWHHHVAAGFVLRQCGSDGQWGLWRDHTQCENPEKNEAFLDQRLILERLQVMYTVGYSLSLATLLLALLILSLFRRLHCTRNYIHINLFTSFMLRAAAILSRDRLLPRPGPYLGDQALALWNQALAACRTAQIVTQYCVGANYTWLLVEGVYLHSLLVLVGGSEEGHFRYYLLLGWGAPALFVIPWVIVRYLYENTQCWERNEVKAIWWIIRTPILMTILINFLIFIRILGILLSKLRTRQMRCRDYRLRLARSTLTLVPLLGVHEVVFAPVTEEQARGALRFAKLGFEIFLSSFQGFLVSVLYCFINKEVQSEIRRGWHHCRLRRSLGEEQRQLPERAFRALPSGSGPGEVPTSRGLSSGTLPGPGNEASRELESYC
Source text: as §1
The human GIPR gene having a sequence identical to the sequence of GenBank Accession No. U39231 was cloned into pMSRα-neo vector to prepare hGIPR/pMSRα-neo. This vector was introduced to the Cre-luc reporter cells obtained in (1) to obtain transformants. Next, a cell line induced to express luciferase, i.e., hGIPR/CHO-K1 cells, were selected from the obtained transformants by the addition of GIP.
as §2

male C57BL/6J mouse = assay: Evaluation of feeding suppressive action in mice; format: in vivo; conditions: 30 nmol/kg s.c. once a day for 3 days; 3-days cumulative food consumption vs solvent control
In short: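 Male C57BL/6J mice, 8-9 weeks, ad libitum fed, given compound (30 or 100 nmol/2 mL in 10% DMSO saline) s.c. at 2 mL/kg once daily for 3 days. Cumulative 3-day food consumption measured by weighing; suppression rate (%) calculated relative to vehicle controls.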

| Compound | EC50 (human GLP-1R) [nM] | EC50 (human GIPR) [nM] | Rate of feeding suppression (%) (male C57BL/6J mouse) |
| --- | --- | --- | --- |
| CCCCCCCCCCCCCCCC(=O)NCC(=O)NCC(=O)NCC(=O)NCC(=O)NCCCC[C@H](NC(=O)[C@H](CC(=O)O)NC(=O)[C@H](CO)NC(=O)[C@@H](NC(=O)[C@](C)(Cc1ccccc1)NC(=O)[C@@H](NC(=O)CNC(=O)[C@H](CCC(=O)O)NC(=O)C(C)(C)NC(=O)[C@H](Cc1ccc(O)cc1)NC)[C@@H](C)O)[C@@H](C)O)C(=O)NC(C)(C)C(=O)N[C@H](C(=O)NC(C)(C)C(=O)N[C@@H](CC(C)C)C(=O)N[C@@H](CC(=O)O)C(=O)N[C@@H](CCCCN)C(=O)N[C@@H](CCC(N)=O)C(=O)N[C@@H](CCCNC(=N)N)C(=O)N[C@@H](CCC(N)=O)C(=O)N[C@@](C)(CC)C(=O)N[C@@H](CCC(=O)O)C(=O)N[C@@H](Cc1ccccc1)C(=O)N[C@H](C(=O)N[C@@H](CCCNC(=N)N)C(=O)N[C@@H](Cc1c[nH]cn1)C(=O)N[C@@H](CC(C)C)C(=O)N[C@@H](CC(C)C)C(=O)N[C@@H](CC(N)=O)C(=O)N[C@@H](CCCCN)C(=O)NC(C)(C)C(=O)N[C@H](C(=O)N[C@@H](CCCNC(=N)N)C(=O)N[C@@H](CCC(N)=O)C(=O)N[C@@H](CCCNC(=N)N)C(=O)N[C@@H](Cc1ccccc1F)C(N)=O)[C@@H](C)O)C(C)C)[C@@H](C)CC [Example 5] (H-[NMeY][Aib]EGT[αMeF]TSDK([Gly-Gly-Gly-Gly-Palmitoyl])[Aib]I[Aib]LDKQRQ[Iva]EFVRHLLNK[Aib]TRQR[Phe(2-F)]-NH2) | 0.13 |  |  |
| CCCCCCCCCCCCCCCC(=O)NCC(=O)NCC(=O)NCC(=O)NCC(=O)NCCCC[C@H](NC(=O)[C@H](CC(=O)O)NC(=O)[C@H](CO)NC(=O)[C@@H](NC(=O)[C@](C)(Cc1ccccc1)NC(=O)[C@@H](NC(=O)CNC(=O)[C@H](CCC(=O)O)NC(=O)C(C)(C)NC(=O)[C@@H](N)Cc1ccc(O)cc1)[C@@H](C)O)[C@@H](C)O)C(=O)N[C@@H](CO)C(=O)N[C@@H](CCCCN)C(=O)NC(C)(C)C(=O)N[C@@H](CC(C)C)C(=O)N[C@@H](CC(=O)O)C(=O)N[C@@H](CCCCN)C(=O)N[C@@H](CCC(N)=O)C(=O)N[C@@H](CCCNC(=N)N)C(=O)N[C@@H](CCC(N)=O)C(=O)N[C@@](C)(CC)C(=O)N[C@@H](CCC(=O)O)C(=O)N[C@@H](Cc1ccccc1)C(=O)N[C@H](C(=O)N[C@@H](CCCNC(=N)N)C(=O)N[C@@H](Cc1c[nH]cn1)C(=O)N[C@@H](CC(C)C)C(=O)N[C@@H](CC(C)C)C(=O)N[C@@H](CC(N)=O)C(=O)N[C@@H](CCCCN)C(=O)NC(C)(C)C(=O)N[C@H](C(=O)N[C@@H](CCCNC(=N)N)C(=O)N[C@@H](CCC(N)=O)C(=O)N[C@@H](CCCNC(=N)N)C(=O)N[C@@H](Cc1ccc(O)cc1)C(N)=O)[C@@H](C)O)C(C)C [Example 23] (H-Y[Aib]EGT[αMeF]TSDK([Gly-Gly-Gly-Gly-Palmitoyl])SK[Aib]LDKQRQ[Iva]EFVRHLLNK[Aib]TRQRY-NH2) | 0.13 | 0.091 |  |
| CCCCCCCCCCCCCCCC(=O)NCC(=O)NCC(=O)NCC(=O)NCC(=O)NCCCC[C@H](NC(=O)[C@H](CC(=O)O)NC(=O)[C@H](CO)NC(=O)[C@@H](NC(=O)[C@](C)(Cc1ccccc1)NC(=O)[C@@H](NC(=O)CNC(=O)[C@H](CCC(=O)O)NC(=O)C(C)(C)NC(=O)[C@H](Cc1ccc(O)cc1)NC)[C@@H](C)O)[C@@H](C)O)C(=O)NC(C)(C)C(=O)N[C@H](C(=O)NC(C)(C)C(=O)N[C@@H](CC(C)C)C(=O)N[C@@H](CCC(=O)O)C(=O)N[C@@H](CCCCN)C(=O)N[C@@H](CCC(N)=O)C(=O)N[C@@H](CCCNC(=N)N)C(=O)N[C@@H](CCC(N)=O)C(=O)N[C@@](C)(CC)C(=O)N[C@@H](CCC(=O)O)C(=O)N[C@@H](Cc1ccccc1)C(=O)N[C@H](C(=O)N[C@@H](CCCNC(=N)N)C(=O)N[C@@H](Cc1c[nH]cn1)C(=O)N[C@@H](CC(C)C)C(=O)N[C@@H](CC(C)C)C(=O)N[C@@H](CC(N)=O)C(=O)N[C@@H](CCCCN)C(=O)NC(C)(C)C(=O)N[C@H](C(=O)N[C@@H](CCCNC(=N)N)C(=O)N[C@@H](CCC(N)=O)C(=O)N[C@@H](CCCNC(=N)N)C(=O)N[C@@H](Cc1ccc(O)cc1)C(N)=O)[C@@H](C)O)C(C)C)[C@@H](C)CC [Example 33] (H-[NMeY][Aib]EGT[αMeF]TSDK([Gly-Gly-Gly-Gly-Palmitoyl])[Aib]I[Aib]LEKQRQ[Iva]EFVRHLLNK[Aib]TRQRY-NH2) | 0.13 |  | −58.4 |
